# Experiments:
# Botrytis cinerea [1] = assay: Test for controlling gray mold on cucumber (prevention test); format: in vivo; conditions: (1-diameter treated/untreated)×100
# Procedure: Test for Controlling Gray Mold (Botrytis cinerea) on Cucumber (Prevention Test)
# (§1) Onto 1.5 leaf-stage cucumber (variety: Sagamihanjiro) which had been grown in a 7 cm-diameter pot was sprayed, using a spray gun, a drug solution produced by diluting an emulsifiable concentrate containing the present compound with water to the predetermined concentration, at 10 ml per pot.
# (§2) On the following day, the first leaf on which was sprayed the drug solution was plucked off, and onto the surface of the leaf was inoculated a mycelia disk which had been prepared from the tip of a cell cluster of Botrytis cinerea cultured at 20° C. for 2 days in a PSA (potato sucrose agar) medium using a 4 mm-diameter cork borer. Then, the cucumber leaf was allowed to stand for 5 days at 20° C. in a moist chamber, the diameter of the diseased spots which formed were measured, and the degree of control was determined according to the following equation. Here, iprodion (trade name: Lobral) was used as a control preparation.
# Preventive value=(1-diameter of disease spots of drug-treated group/diameter of disease spots of untreated group)×100
# cucumber [2] = assay: Toxicity in Sclerotinia rot prevention test on cucumber; format: in vivo, cucumber (variety: Sagamihanjiro)
# Procedure: as §1
# (§3) On the following day, the first leaf on which was sprayed the drug solution was plucked off, and onto the surface of the leaf was inoculated a mycelia disk which had been prepared from the tip of a cell cluster of Sclerotinia sclerotiorum cultured at 20° C. for 1 day in a PSA medium by using a 4 mm-diameter cork borer. Then, the cucumber leaf was allowed to stand for 3 days at 20° C. in a moist chamber, the diameter of the disease spots which formed were measured measured, and the preventive value was determined according to the following equation.
# cucumber [3] = assay: Toxicity in gray mold prevention test on cucumber; format: in vivo, cucumber (variety: Sagamihanjiro)
# Procedure: as §1, §2
# Botrytis cinerea [4] = assay: Test for controlling gray mold on cucumber (curative test); format: in vivo; conditions: (1-length treated/untreated)×100
# Procedure: Test for Controling Gral Mold (Botrytis cinerea) on Cucumber (Curative Test)
# The first leaf was plucked off from 1.5 leaf-sage cucumber (variety: Sgamihanjiro) which had been grown in a 7 cm-diameter pot, and a mycelia disk of Botrytis cinerea was inoculated in the same manner as in the Experiment 1. Then, the cucumber leaf was allowed to stand for 2 days at 20° C. in a moist chamber, and when the disease spots reached approximately […] in diameter, a drug solution produced by deluting an emulsion containing the present compound with water to the desired concentration was sprayed at 10 ml per leaf using a spray gun, and after drying in air the leaf was allowed to stand for 3 days at 20° C. in a moist chamber.
# The lengths of the newly developed diseases spots were measured, and the preventive value was determined using the following equation.
# Preventive value=(1-length of diseased spots of drug-treated group/length of diseased spots of untreated group)×100
# Sclerotinia sclerotiorum [5] = assay: Test for controlling cucumber Sclerotinia rot (prevention test); format: in vivo; conditions: Sclerotinia rot on cucumber, (1-diameter treated/untreated)×100
# Procedure: Test for Controling Cucumber Sclerotinia Rot (Sclerotinia sclerotiorum) (Prevention Test)
# as §1, §3
# Preventive value=(1-diameter of diseased spots of drug-treated group/diameter of disease spots of untreated group)×100
# [6] = system: platelet aggregation (collagen); assay: Anti-platelet aggregation effect, collagen-induced; format: cell-based, Hartley male guinea-pigs; conditions: Cavia porcellus; collagen 2 μg/ml; guinea-pig platelet rich plasma, 37° C., 0.5% DMSO
# Procedure: (§4) Blood was collected from the abdominal artery of Hartley male guinea-pigs (weight: about 300 g) into a syringe containing 1/10 volume 3.8% sodium citrate. The blood thus obtained was subjected to a centrifugation at 160×g for 10 minutes at room temperature to obtain platelet rich plasma (PRP). Furthermore, the residue was subjected to a centrifugation at 1500×g for 15 minutes to obtain platelet poor plasma (PPP). The measurement was carried out by diluting PRP with PPP to 300,000/mm^3. The measurement range of transmittance was adjusted to 0% in the case of PRP and to 100% in the case of PPP. Thereafter, a test compound dissolved in 100% dimethylsulfoxide (DMSO) was added to PRP (the final concentration of DMSO: 0.5%). After incubation at 37° C., 1000 rpm for 2 minutes, an aggregating agent was added to measure an aggregation curve. The anti-platelet aggregation effect of the test compound was expressed by a concentration (IC50 :μM) at which the aggregation of control was 50% inhibited. The aggregating agents used were ADP (the final concentration: 5 μM), collagen (the final concentration: 2 μg/ml) and U46619 (the final concentration: 0.5 μM). The measurement of platelet aggregation was carried out using NBS HEMA Tracer 601.
# Solubility in solvents = format: physicochemical
# [7] = system: platelet aggregation (U46619); assay: Anti-platelet aggregation effect, U46619-induced; format: cell-based, Hartley male guinea-pigs; conditions: Cavia porcellus; U46619 0.5 μM; guinea-pig platelet rich plasma, 37° C., 0.5% DMSO
# Procedure: as §4
# [8] = system: platelet aggregation (ADP); assay: Anti-platelet aggregation effect, ADP-induced; format: cell-based, Hartley male guinea-pigs; conditions: Cavia porcellus; ADP 5 μM; guinea-pig platelet rich plasma, 37° C., 0.5% DMSO
# Procedure: as §4
# Sclerotinia sclerotiorum [9] = assay: Minimum growth inhibition concentration, agar plate dilution method; format: cell-based
# Description: (§5) The measurement of the minimum growth inhibition concentration (MIC) was made following the agar plate dilution method using an agar medium containing the compound A.
# Sclerotinia cinerea = assay: as above; format: cell-based
# Description: as §5
# Botrytis cinerea [10] = assay: as above; format: cell-based
# Description: as §5
# Aspergillus nigar = assay: as above; format: cell-based
# Description: as §5
# Rhynchosporium secalis = assay: as above; format: cell-based
# Description: as §5
SMILES,Preventive value (Botrytis cinerea [1]; 25 ppm spraying),Preventive value (Botrytis cinerea [1]; 50 ppm spraying),Preventive value (Botrytis cinerea [1]; 100 ppm spraying),Toxicity (cucumber [3]; 25 ppm spraying),Toxicity (cucumber [3]; 50 ppm spraying),Toxicity (cucumber [3]; 100 ppm spraying),Preventive value (Botrytis cinerea [4]; 50 ppm spraying),Preventive value (Botrytis cinerea [4]; 100 ppm spraying),other results
"CC(C)NC(=O)N1CC(=O)N(c2cc(Cl)cc(Cl)c2)C1=O [Iprodion, iprodion, reference compound]",25,95,100,none,none,none,70,75,Toxicity (cucumber [2]; 50 ppm spraying): none; Toxicity (cucumber [2]; 100 ppm spraying): none; Preventive value (Sclerotinia sclerotiorum [5]; 50 ppm spraying): 100; Preventive value (Sclerotinia sclerotiorum [5]; 100 ppm spraying): 100
CCCCC1CC2=C(C(=O)OC2=O)C(C(O)CCCC)CC2=C1C(=O)OC2=O (stereo not drawn) [Compound A],100,100,100,none,none,none,73,79,"IC50 [6]: 42 µM; Solubility in solvents (Solubility in solvents; chloroform, ethyl acetate, methanol): readily soluble; Solubility in solvents (Solubility in solvents; water): sparingly soluble; IC50 [7]: 484 µM; IC50 [8]: 187 µM; MIC (Sclerotinia sclerotiorum [9]): 1.56 µg/mL; MIC (Sclerotinia cinerea): 3.13 µg/mL; MIC (Botrytis cinerea [10]): 0.78 µg/mL; MIC (Aspergillus nigar): 3.13 µg/mL; MIC (Rhynchosporium secalis): 1.56 µg/mL"

# Reference: US5346919A, “Anti-bacterial substances and microorganisms which produce them” (Nissan Chemical Industries, Ltd., priority 1992, dated 1994)
